In patent publication US9644010B2, “LY6K epitope peptides for TH1 cells and vaccines containing the same” (ONCOTHERAPY SCIENCE, INC., priority 2012, dated 2017):

Legend:
[1] = test system: LY6K-specific CD4^+ Th cells; experiment: Cytokine assays (Bio-Plex) of peptide-specific Th cells; type: cell-based, human; conditions: Th-clone from HDL4; autologous PBMCs with cognate peptide, 24 h
Protocol: T cells (1×10^4/well) were cultured with L-DP5 (5×10^4/well) in the presence of LY6K (119-142) in 96-well culture plate. After 20 h, culture supernatants were collected and cytokine (IFN-gamma, GM-CSF, TNF-alpha, MIP1beta, IL-2, IL-4, IL-17) level was measured using the Bio-Plex system (Bio-Rad) according to manufacturers' instructions.
LY6K (119-142) LP-specific bulk Th cells (3×10^4 cells/well) and the LY6K (172-191) LP-specific Th cell clone (Th-clone, 1×10^4 cells/well) were cultured with autologous PBMCs (3×10^4 cells/well) in the presence of cognate peptide in 96-well culture plates. After 24 h, culture supernatants were collected and cytokine (IL-2, IFN-gamma, GM-CSF, TNF-alpha, and MIP1beta) levels were measured using the Bio-Plex system (Bio-Rad) according to manufacturer's instructions.

HLA-A24 Tgm = experiment: In vivo cross-priming assay, ex vivo IFN-gamma ELISPOT; set-up: species or system mice; conditions: 100 micro-g/mouse in IFA
Text: HLA-A24 Tgm were kindly provided by Dr. F. A. Lemonnier (Jung K O, et al. J Virol; 86: 7616-24). For peptide vaccination, the mice were intradermally injected at the base of the tail with LY6K (172-191) LP (100 micro-g/mouse) solution emulsified in IFA at 7-day intervals. Seven days after the second vaccinations with LY6K (172-191) LP, mice were sacrificed to obtain inguinal lymphocytes and CD8^+ T cells were positively isolated with magnetic microbeads. The number of IFN-gamma producing CD8^+ T cells (3×10^5/well) upon stimulation with LY6K-A24 (177-186) SP or HIV-A24 SP-pulsed C1R-A2402 cells (2×10^4/well) was counted by ELISPOT assay.
HLA-A24 (HHH) transgenic mice (Tgm) were kindly provided by Dr. F. A. Lemonnier (Jung K O, et al. J Virol; 86: 7616-24). Mice were intradermally injected at the base of the tail with LY6K (172-191) LP solution (100 micro-g/mouse) emulsified in incomplete Freund's adjuvant (IFA), third times at 7-day intervals. […] The number of IFN-gamma producing CD8^+ T cells (1×10^5 cells/well) in response to stimulation with LY6K-A24 (177-186) SP-pulsed BM-DCs (2×10^4 cells/well) was counted by ex vivo ELISPOT assay (Inoue M, et al. Immunol Lett 2009; 126:67-72; Harao M, et al. Int J Cancer 2008; 123:2616-25.).

[2] = test system: LY6K-specific T cells in PBMCs; experiment: Assessment of LY6K-specific CD4+ T cell responses in head and neck cancer patients, IFN-gamma ELISPOT after 1 week stimulation of PBMCs with LPs; type: cell-based, human
Protocol: Two phase I clinical trials of peptide-based cancer immunotherapy were reviewed and approved by the Institutional Review Board of Kumamoto University, Kumamoto, Japan (approval no. 841 and 1124). […] Tumor stage and grading were determined according to the International Union against cancer (UICC) clarification. The patients suffered from inoperable advanced head and neck cancer with recurrent or metastatic tumors who had been resistant to standard therapy were enrolled in one trial (841). The patients suffered from operable advanced head and neck cancer were enrolled in another trial (1124). These patients in this trial (1124) had been treated with postoperative peptide-vaccine immunotherapy. The patients suffered from inoperable advanced HNMT with recurrent or metastatic tumors and were resistant to standard therapy; they were enrolled in the trial under University Hospital Medical Information Network Clinical Trials Registry (UMIN-CTR) number 000008379 (CTR-8379). HNMT patients with radical resection were enrolled in the trial under UMIN-CTR number 000008380 (CTR-8380). In the latter trial, HNMT patients were treated with postoperative peptide vaccine combined with S-1, ifosfamide, or doxorubicin. […]
The PBMCs from cancer patients or healthy donors were cultured with 10 micro-g/ml of mixture of LY6K-derived LPs in a 24-well plate (2×10^6/well) in AIM-V supplemented with 5% human decomplemented plasma and IL-7 and IL-2 were added at day 0 and day 2. After 1 week of cell culture, the PBMCs were collected and the presence of LY6K-specific T cells was measured by IFN-gamma ELISPOT assays. […] The number of specific T cells expressed as spot-forming cells/10^5 cells was calculated after subtracting negative control values (background). […] Responses were evaluated to be positive when IFN-gamma were more than 10 and more than 2-fold the background. […] And responses were evaluated to be positive when IFN-gamma were more than 15 and more than 2-fold the background. […]

## KCCKIRYCNLEGPPINSSVF [LY6K (172-191)]
[1]
  cytokine production (IFN-gamma, TNF-alpha, IL-2, GM-CSF, MIP1beta) by LP-specific Th-clone: large amount
HLA-A24 Tgm; HLA-A24 Tgm immunized 3 times
  IFN-gamma production by CD8+ T-cells of immunized mice upon stimulation with LY6K-A24 (177-186) SP-pulsed BM-DCs: produced IFN-gamma
HLA-A24 Tgm; HLA-A24 Tgm immunized twice, base of tail, 7-day intervals, inguinal LN
  IFN-gamma production by CD8+ T cells of immunized mice upon re-stimulation with LY6K-A24 (177-186) SP-pulsed C1R-A2402 cells: produced IFN-gamma specifically
[2]; FIG. 8D, Mann-Whitney U test
  number of LP-specific spots in vaccinated patients compared with HNMT patients before vaccination: significantly larger
  numbers of specific IFN-gamma spots in vaccinated patients compared with healthy donors: significantly larger
[2]; FIG. 8E, Fisher's exact probability test
  frequency of LP-specific immune response in HNMT patients after vaccination compared with before vaccination: significantly higher
